Test results: US7741340B2, “Hydroxy piperidine derivatives to treat gaucher disease” (Amicus Therapeutics, Inc., priority 2003, dated 2010)

Tests used:
[1] = molecular target: human GCase (Homo sapiens, UniProt P04062); assay: Inhibitory activity against GCase (4-methylumbelliferyl β-glucoside substrate); assay type: biochemical; settings: for IC50: 4-methylumbelliferyl β-glucoside at 3 mM, pH 5.2, 37° C., 30 min
[2] = shortly after the start of the treatment; cited from earlier work
[3] = tested on: Fibroblasts established from Gaucher patients with N370S/N370S mutation; assay: Chaperone rescue of residual GCase activity in Gaucher fibroblasts; assay type: cell-based, human; settings: N370S homozygous fibroblasts, cultured 4 days with compound, at optimal concentration

human GCase, sequence (P04062 40-536): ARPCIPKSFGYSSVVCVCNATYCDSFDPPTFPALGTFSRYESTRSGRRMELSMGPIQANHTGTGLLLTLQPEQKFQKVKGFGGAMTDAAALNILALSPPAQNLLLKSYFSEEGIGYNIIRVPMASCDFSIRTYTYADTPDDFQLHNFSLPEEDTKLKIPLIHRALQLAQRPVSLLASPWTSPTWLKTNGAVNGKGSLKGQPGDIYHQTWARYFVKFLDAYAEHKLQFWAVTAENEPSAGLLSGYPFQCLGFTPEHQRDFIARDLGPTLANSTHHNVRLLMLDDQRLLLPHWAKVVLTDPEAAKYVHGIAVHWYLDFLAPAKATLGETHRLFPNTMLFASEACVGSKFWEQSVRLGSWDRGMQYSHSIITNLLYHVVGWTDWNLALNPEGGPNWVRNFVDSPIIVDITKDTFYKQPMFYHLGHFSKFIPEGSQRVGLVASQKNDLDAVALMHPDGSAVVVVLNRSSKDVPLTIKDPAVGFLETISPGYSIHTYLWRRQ

N-nonyl hydroxypiperidine [reference compound]
IC50 [1]: > 100000 nM

CCCCCCC[C@@H]1NC[C@@H](O)[C@H](O)[C@H]1CO [Compound 13, (3R, 4R, 5R, 6S)-5-(Hydroxymethyl)-6-n-heptyl-3,4-dihydroxypiperidine]
IC50 [1]: 1.8 nM

CCCC[C@@H]1NC[C@@H](O)[C@H](O)[C@H]1CO [Compound 11, (3R, 4R, 5R, 6S)-5-(Hydroxymethyl)-6-n-butyl-3,4-dihydroxypiperidine]
IC50 [1]: 160 nM
effect of 6-C substitution on potency towards GCase ([1]; compared with the parent hydroxypiperidine): did not affect the potency

CCCCCCCC[C@@H]1NC[C@@H](O)[C@H](O)[C@H]1CO [Compound 14, (3R, 4R, 5R, 6S)-5-(Hydroxymethyl)-6-n-octyl-3,4-dihydroxypiperidine]
IC50 [1]: 0.8 nM

CCCCN1CC(O)C(O)C(O)C1CO (stereo not shown) [N-butyl 1-deoxynojirimycin]
patients with diarrhea (most frequent adverse effect) [2]: 79%

N-butyl hydroxypiperidine [reference compound]
IC50 [1]: 44000 nM

OC[C@H]1CNC[C@@H](O)[C@@H]1O [hydroxypiperidine, isofagomine]
increase of residual enzyme activity in patient cells [3]: approximately 2 fold

CCCCCC[C@@H]1NC[C@@H](O)[C@H](O)[C@H]1CO [Compound 12, (3R, 4R, 5R, 6S)-5-(Hydroxymethyl)-6-n-hexyl-3,4-dihydroxypiperidine]
IC50 [1]: 4.2 nM
increase in potency over IFG ([1]; relative to IFG): approximately 13 fold
